Source: US20020015937A1, “Methods for inactivating viruses” (priority 2000, published 2002)

How the values were obtained:
Assay type in all cases: cell-based
[1] = tested on: Feline rhinotrachetis virus; experiment: Inactivation of feline rhinotrachetis virus in human blood plasma by pressure and HMT with UV (plaque assay on feline cells Fc3Tg)
Method: The infectivity of the virus suspension is determined by duplicate plaque assays on cultured feline cells, Fc3Tg (ATCC CCL 176) with a methylcellulose overlay. The sample is split into four aliquots and are treated as follows: 1) aliquot 1—no treatment; […] 4) aliquot 4—nothing added and pressurized to 30,000 psi for 10 minutes. All samples are held at a temperature of 25° C. throughout the experiment. After treatment, the plasma is serially diluted, mixed with cultured feline cells and plated on agar.

bacteriophage MS2 [2] = experiment: Inactivation of bacteriophage MS2 in human blood plasma by pressure cycling and 1-(2-aminoethyl)aziridine (plaque assay on E. coli)
SV 40 = experiment: Inactivation of SV 40 in human blood plasma by pressure cycling and DNase (plaque assay on primate cells)
[3] = tested on: Feline rhinotrachetis virus; experiment: Inactivation of feline rhinotrachetis virus in human blood plasma by pressure cycling and S-59 with UV (plaque assay on feline cells)
bacteriophage MS2 [4] = experiment: Inactivation of bacteriophage MS2 in human blood plasma by pressure and RNase (plaque assay on E. coli)

Molecule: Cc1oc2c(C)c3oc(=O)cc(C)c3cc2c1CO [HMT, 4′-hydroxymethyl-4,5′,8-trimethylpsoralen]
- reduction in viral titer, combination with pressure versus sum of the reductions of the single treatments ([1]; 20 μg/ml HMT, 30,000 psi for 10 minutes, then longwave UV light (320 to 380 nm) 10 minutes, 25° C., human blood plasma, 2×10^7 pfu per ml): significantly greater reduction in viral titer
- viral inactivation under pressure at lower concentrations ([1]; similar experiments with lower concentrations of HMT, with pressure): equivalent viral inactivation with lower concentrations

Molecule: NCCN1CC1 [1-(2-aminoethyl)aziridine]
- reduction in viral titer, combination with pressure cycling versus sum of the reductions of the single treatments (bacteriophage MS2 [2]; 0.007 M 1-(2-aminoethyl)aziridine, 80,000 psi for 10 minutes, 20 cycles, 25° C., human blood plasma, 10^8 pfu per ml MS2): significantly greater reduction in viral titer
- viral inactivation under pressure cycling at lower concentrations (bacteriophage MS2 [2]; similar experiments with lower concentrations of 1-(2-aminoethyl)aziridine, with pressure cycling): equivalent viral inactivation with lower concentrations of 1-(2-aminoethyl)aziridine or with shorter incubation time

Molecule: DNase
- reduction in viral titer, combination with pressure cycling versus sum of the reductions of the single treatments (SV 40; 20 μg/ml DNase I, 90,000 psi for 10 minutes, 25 cycles, 37° C., human blood plasma, 10^8 pfu per ml SV 40): significantly greater reduction in viral titer
- viral inactivation under pressure cycling at lower concentrations (SV 40; similar experiments with lower concentrations of DNase, with pressure cycling): equivalent viral inactivation with lower concentrations of DNase or with shorter incubation time

Molecule: Cc1oc2c(C)c3oc(=O)cc(C)c3cc2c1COCCN [S-59, 4′-(4-amino-2-oxa)butyl-4,5′,8-trimethylpsoralen]
- reduction in viral titer, combination with pressure cycling versus sum of the reductions of the single treatments ([3]; 150 μM S-59, longwave UV light 10 minutes, 90,000 psi for 5 minutes, 24 cycles, then UV ten minutes, 25° C., human blood plasma, 2×10^7 pfu per ml): significantly greater reduction in viral titer
- viral inactivation under pressure cycling at lower concentrations ([3]; similar experiments with lower concentrations of S-59, with pressure cycling): equivalent viral inactivation with lower concentrations

B1: RNase: ribonuclease, enzyme that hydrolyzes RNA; RNase A used at 10 μg/ml (protein, UniProt P61823 27-150, looked up)
Ribonuclease pancreatic: KETAAAKFERQHMDSSTSAASSSNYCNQMMKSRNLTKDRCKPVNTFVHESLADVQAVCSQKNVACKNGQTNCYQSYSTMSITDCRETGSSKYPNCAYKTTQANKHIIVACEGNPYVPVHFDASV
- reduction in viral titer, combination with pressure versus sum of the reductions of the single treatments (bacteriophage MS2 [4]; 10 μg/ml RNase A, 25,000 psi for 20 minutes, 37° C., human blood plasma, 10^8 pfu per ml MS2): significantly greater reduction in viral titer
- viral inactivation under pressure at lower concentrations (bacteriophage MS2 [4]; similar experiments with lower concentrations of RNase, with pressure): equivalent viral inactivation with lower concentrations of RNase or with shorter incubation time
